Here are results for one compound from patent US20250352555A1, “METHOD OF INCREASING IMMUNE CELL ACTIVATION AND/OR TREATING CANCER USING DIBENZOXAZEPINONES” (VASCULAR THERAPEUTICS PTY LTD, priority 2022, published 2025).

One series relates to total ERK. The series can be described thus: Immunohistochemistry of B16F10 tumors (Day 17), total ERK. Particulars: B16F10 tumors Day 17, 200 mg/kg i.p. In kind it is in vivo, mouse. An excerpt:
Immunohistochemical staining and analyses. Rabbit monoclonal anti-CD3 (cat. no. ab16669; mouse, rat and human reactive), rabbit monoclonal anti-PD-1 (cat. no. ab214421), rabbit monoclonal anti-CD68 (cat. no. ab125212) antibodies were obtained from Abcam, rabbit monoclonal anti-phospho-ERK (Thr^202/Tyr^204) (cat. no. CST4370), rabbit monoclonal total ERK (cat. no. CST4695), antibodies were obtained from Cell Signaling Technology. Rabbit polyclonal anti-PD-L1 (cat. no. PA5-20343) antibody was obtained from ThermoFisher.
Formalin fixed, paraffin embedded sections were prepared from tumors. Heat-induced epitope retrieval was applied to all deparaffinized sections (4 μm sections on Superfrost slides) with citrate buffer, pH 6.0 for 5 min at 110° C. […] Integrated optical density (IOD) or area of positive staining (red chromagen) was assessed using Image-Pro Plus software (Cybernetics, Bethesda, MD, USA). Positive staining was the average of quantitation in 4-8 fields of view under 20× or 40× objectives.
To assess the effect of BT2 in the same model, C57BL/6J mice bearing s.c. B16F10 tumors were administered with BT2 or vehicle (200 mg/kg or 20 ml/kg, respectively, i.p.) once a day on a 5 days-on/2 days-off schedule. […] Tumor size on Day 17 measured using callipers (FIG. 10A) correlated with isolated weighed tumors (FIG. 10B).

A short description of series [1]: Serum BT2 concentration by LC-MS in B16F10 tumor-bearing mice. Type of series: in vivo. The settings on record: mouse, intraperitoneal, Day 17, 200 mg/kg i.p., C57BL/6J mice. On the procedure:
Mass spectrometry. Proteins in serum (50 μl) were precipitated by diluting with acetone (150 μl). The mixture was left for 14 h at 4° C. and protein was pelleted by centrifugation (10 min at 14,000 g) and supernatant removed. The solution (10 μl) was diluted into 40 μl Buffer A (H2O (0.1% formic acid)) for MS analysis. BT2 standard was prepared by diluting stock suspension of BT2 ([…], 30 mg/ml) in Buffer A (990 μl) then diluting 10 μl of this in 990 μl followed by another 1 in 100 dilution. […] LC-MS was performed using a Thermo QExactive HF, Gold C18 column (50×2.1 mm) with Solvent A (H2O (0.1% formic acid) and Solvent B (H2O:CH3CN 20:80 (0.1% formic acid) with gradient T=0, 1% B, T=26 min, 100% B, T=27 min, 100%, T=27.1, 1% B, T=30 min, 1% B; column temperature 45° C. MS1 scan, m/z 140-800, 3×10^6 ions, max IT 25 msec, resolution 120,000 and Top 5 MS2 (2×10^5 ions, max IT 50 msec, resolution 30,000 and HCD 20, 30 50V). Extracted ion chromatograms (m/z 327.134±5 ppm) were obtained for blanks, standards and samples and integrated peak areas calculated and compared).
To assess the effect of BT2 in the same model, C57BL/6J mice bearing s.c. B16F10 tumors were administered with BT2 or vehicle (200 mg/kg or 20 ml/kg, respectively, i.p.) once a day on a 5 days-on/2 days-off schedule. Treatment commenced on Day 5 (FIG. 9A). […]

In a further series the test system is JUN. The series can be described thus: Western blotting for JUN, A375 cells. Type of series: cell-based, human. Particulars: A375 cells (BRAF^V600E), 24 h, dose-dependent. On the procedure:
Western blotting. Cells were treated with compounds and times indicated and total cell lysates were prepared in RIPA buffer. Lysates (10 μg) were resolved by SDS-PAGE and transferred to Immobilon-P polyvinylidene difluoride (PVDF) membranes (Millipore, USA).
Membranes were blocked with 5% skim milk and incubated with rabbit monoclonal anti-c-Jun (Abcam, cat. no. ab32137; mouse, rat and human reactive) antibody, rabbit monoclonal anti-PD-1 (Abcam, cat. no. ab214421) antibody, mouse monoclonal β-actin antibody (Sigma-Aldrich, cat. no. A5316), anti-phospho-SAPK/JNK (Thr^183/Tyr^185) (98F2) (CST, cat. no. 4671) antibody, anti-phospho-p44/42 MAPK (ERK1/2) (Thr^202/Tyr^204) (D13.14.4E) (CST, cat. no. 4370) antibody, anti-phospho-p38 MAPK (Thr^180/Tyr^182) (D3F9) (CST, cat. no. 4511) antibody, anti-SAPK/JNK antibody (CST, cat. no. 9252), anti-p44/42 MAPK (ERK1/2) (137F5) antibody (CST, cat. no. 4695), anti-p38 MAPK antibody (CST, cat. no. 9212), anti-DUSP8 antibody (Abcam, cat. no. ab198175) or anti-c-MAF (BLR045F) antibody (Abcam, cat. no. ab243901). […] Chemiluminescence was detected using the Western Lightning Chemiluminescence system (Thermo Scientific, USA) and ImageQuant™ LAS 4000 biomolecular imager (GE Healthcare Life Sciences, USA). Band intensity in images generated with the LAS 4000 was quantified using NIH Image J. […]
(In general: Immunoblotting shows a protein as a band on a membrane.)

Molecules are shown by their SMILES. Where “and” joins values, the source holds several entries; their conditions need not be identical. Identical values can stand only once.

As for `CCOC(=O)Nc1ccc2c(c1)C(=O)N(CC)c1ccccc1O2` [BT2, (10-ethyl-11-oxo-10,11-dihydro-dibenzo[b,f][1,4]oxazepin-2-yl)-carbamic acid ethyl ester], in the series with total ERK, the “total ERK levels in tumors (IHC)” value is listed as “without affecting total ERK levels”. Besides, the concentration at 17 day in series [1] is 4000 ng/mL and 12.3 µM. Further, the “JUN expression (Western blot)” value in the series on JUN is listed as “increased”.
